Columns and labels:
MS-NASH mice [1] = experiment: High dose CCl4 (0.2 mL/kg) twice weekly for 3 weeks in MS-NASH mice on WDF; assay type: in vivo, mouse
Excerpt: (§1) Male MS-NASH (formally FATZO) mice were developed by Crown Bioscience as the new generation of mouse model with obese, metabolic disorder, diabetes and NAFLD/NASH that is more translatable to human diseases. The animals for this study were bred housed individually in IVC cages (Taicang, China) or open ventilated cages (Indianapolis, Ind.), and fed control diet (CD, Purina 5008 chow, LabDiet, St. Louis, Mo.) with distilled water ad libitum for the first 8 weeks after birth, then, stratified into different experimental groups based on body weight, serum ALT and AST. Room temperature was monitored and maintained at 22-26° C. with a 12-hour light cycle (06:00-18:00). C57B1/6J mice (The Jackson Laboratory, Ellsworth, Maine) were used as control strain and housed under the same conditions. All mice were maintained and treated in accordance with the guidelines of Association for Assessment and Accreditation of Laboratory Animal Care (AAALAC), and experimental protocols approved by the Institutional Animal Care and Use Committee (IACUC).
(§2) In all the experiments, body weights were recorded every 4 weeks. At the end of the experiments, all mice were euthanized by CO2 inhalation and confirmed with cervical dislocation approximately 24 hours after the last CCl4 administration.
(§3) Blood samples: Blood samples during the course of the experiment were collected from the tail or at the end of the experiment from cardiac puncture, from which, serum prepared for measuring AST and ALT by a clinical analyzer (Beckman-Coulter AU480; Brea, Calif.). In the low dose CCl4 repeated treatment group, in-life blood samples were taken—24 hours, and terminal blood samples taken, —24 hours after CCl4 doing, respectively. A separate experiment was performed to observe the acute time course at 24, 48 and 72 hours in response to a single dose of CCl4 at 0.2 mL/kg in MS-NASH mice on CD.
(§4) Tissue processing: The liver tissues were fixed in 10% neutral buffered formalin (NBF) at 4° C. for 24 hours followed by baths of standard concentrations of alcohol then xylene to prepare the tissues for paraffin embedding. After being embedded in paraffin and cooled, five-micron sections were cut and stained for routine H&E and Picric Sirius Red.
(§5) Semi-quantitative scoring by a pathologist: The digital images were evaluated by a well-trained research pathologist blind of different study groups with the standard NASH criteria for semi-quantitative scoring commonly used in preclinical animal models and in patients. Hepatosteatosis, lobular inflammation, and hepatocyte balloon degeneration were scored individually from the H&E staining and then summarized as a standard NAFLD Activity Score (NAS). Fibrosis score was assessed systemically with pattern recognition from PSR staining. Three representative areas per liver were examined and the scores of each parameter from individual animal were averaged.
Computerized quantitative analysis: Computer software with […] (AI) machine learning algorithm for histology analysis from Halo (Indica Labs, Albuquerque, N. Mex.) or ImageDx (Reveal Biosciences, San Diego, Calif.) were used to analyze digitally scanned images of H&E and PSR staining for quantitative analysis of steatosis, ballooning, inflammation or fibrosis in a set of the same slides evaluated by the pathologist. The analysis process included automated tissue identification, followed by segmentation of regions of interest for quantification of the following metrics: 1) Steatosis percentage: the area of total lipid accumulation subcategorized micro- or macro-vesicular within the entire section area; 2) Ballooning hepatocyte density: the density of ballooning hepatocytes within the entire section area; 3) Inflammatory cell density: the total number of inflammatory cells within the entire section area. All 3 parameters above were analyzed in the H&E stained section. 4)Fibrosis percentage: the total fibrosis area within the entire section area in the PSR stained section. […]

MS-NASH mice [2] = experiment: Low dose CCl4 (0.08 mL/kg) twice weekly for 8 weeks in MS-NASH mice on WDF; assay type: in vivo, mouse
Excerpt: as §1, §2, §3
Liver contents: The right lobe of the liver (— 200 mg/animal) was collected and snap frozen in liquid nitrogen, placed in Lysing Matrix D Tubes with distilled water at 20% concentration (MP Biomedicals, Santa Anna, CA), homogenized in a Fastprep-FP120 cell disrupter (Thermo Fisher Savant) in cold condition for 30 seconds. The liver contents of triglyceride and cholesterol were analyzed by a clinical analyzer (Beckman-Coulter AU480) within 30 min of sample preparation.
as §4, §5
Computerized quantitative analysis: Computer software with […] (AI) machine learning algorithm for histology analysis from Halo (Indica Labs, Albuquerque, N. Mex.) or ImageDx (Reveal Biosciences, San Diego, Calif.) were used to analyze digitally scanned images of H&E and PSR staining for quantitative analysis of steatosis, ballooning, inflammation or fibrosis in a set of the same slides evaluated by the pathologist. […]

mice model = details: high chemical dosage (0.8-1.0 ml/kg) required to generate liver fibrosis phenotype; cited from earlier work
MS-NASH mice [3] = experiment: Survival rate in MS-NASH mice on WDF under CCl4; assay type: in vivo, mouse
Description: (§6) All values are reported as Mean±SEM, unless noted otherwise. Model characterization were compared in MS-NASH mice on CD or WDF with or without CCl4; and effects of OCA were compared to vehicle with One-Way ANOVA for multiple groups or Holm-Sidak t-test for 2 groups. Survival curves of total MS-NASH mice and C57B1/6 mice were compared using Log-rank test for trend. Parametric correlation tests were conducted between pathologist scores and ImageDx quantitative analysis using Pearson correlation coefficient r. Statistical differences were denoted as p<0.05 or p<0.005. Prism software (GraphPad, version 8.3) was used for the statistical analysis and graphing.
(§7) This example illustrates survival rate in MS-NASH and C57B1/6 mice on WDF and treated high and low dose of CCL4.

C57B1/6 mice [4] = experiment: Survival rate in C57B1/6 mice on WDF under CCl4; assay type: in vivo, mouse; details: low dose CCl4; C57B1/6 compared to MS-NASH mice; trend not statistically significant
Description: as §6, §7

MS-NASH mice [5] = experiment: Low dose CCl4 (0.08 mL/kg) twice weekly for 8 weeks in MS-NASH mice on WDF; assay type: in vivo, mouse; details: week 12 and 14, 3 days after CCl4 dosing, vs mice on WDF only
C57B1/6 mice [6] = experiment: Therapeutic effects of OCA in WDF fed C57B1/6 mice treated low dose CCl4; assay type: in vivo, mouse; details: OCA 30 mg/kg orally once daily 8 weeks vs vehicle
Excerpt: as §1
(§8) In all the experiments, body weights were recorded every 4 weeks. […]
(§9) All values are reported as Mean±SEM, unless noted otherwise. […] Parametric correlation tests were conducted between pathologist scores and ImageDx quantitative analysis using Pearson correlation coefficient r. […]

MS-NASH mice [7] = experiment: Therapeutic effects of OCA in WDF fed MS-NASH mice treated low dose CCl4; assay type: in vivo, mouse; details: OCA 30 mg/kg orally once daily 8 weeks vs vehicle
Excerpt: as §1, §8, §9

[8] = CCl4 0.2 mL/kg IP twice weekly 3 weeks, vs CD or WDF without CCl4
[9] = CCl4 0.2 mL/kg twice weekly 3 weeks, MS-NASH mice on WDF
[10] = CCl4 0.2 mL/kg twice weekly 3 weeks, measured 24 hours after the last dose
[11] = CCl4 0.08 mL/kg twice weekly 8 weeks, WDF vs WDF+CCl4
[12] = CCl4 0.08 mL/kg twice weekly 8 weeks, end of study
[13] = CCl4 0.08 mL/kg twice weekly 8 weeks, with vs without CCl4
[14] = CCl4 0.08 mL/kg, 24 hours after the last dose at end of experiment, compared to high dose CCl4
[15] = WDF + CCl4 0.08 mL/kg twice weekly

## ClC(Cl)(Cl)Cl [CCl4, carbon tetrachloride]
MS-NASH mice [1]; [8]
  caloric intake: significantly reduced
  food intake: significantly reduced
MS-NASH mice [1]; CCl4 0.2 mL/kg IP twice weekly 3 weeks, vs MS-NASH mice on CD or WDF without CCl4
  body weight: significantly reduced
MS-NASH mice [1]; [9]
  fibrosis area by computer analysis software (Halo) from PSR images: ~8%
  histopathology images (H&E, PSR): aggravated liver injury and centrilobular fibrosis
  pathology scores by the pathologist (steatosis, inflammation, ballooning, overall NAS, fibrosis score): failed to detect such enhanced pathology
MS-NASH mice [1]; [10]
  serum ALT: dramatically elevated
  serum AST: dramatically elevated
MS-NASH mice [2]; [11]
  liver fibrosis score evaluated by the pathologist: significantly aggravated
  other aspects of liver pathology (NAS scores by the pathologist): little influence
MS-NASH mice [2]; [12]
  liver contents of cholesterol: significantly reduced
  liver weight: significantly reduced
MS-NASH mice [2]; CCl4 0.08 mL/kg twice weekly 8 weeks, vs mice without CCl4
  body weight: reduced
MS-NASH mice [2]; [13]
  fibrosis area by Reveal ImageDx: larger
  steatosis area, inflammatory cell infiltration and degenerated liver cell counts by Reveal ImageDx: no significant difference
MS-NASH mice [2]; [14]
  elevation of serum ALT: not as dramatic
  elevation of serum AST: not as dramatic
MS-NASH mice [2]; MS-NASH mice fed WDF with 0.08 ml/kg CCl4
  NAFLD progression and fibrosis development: accelerated
Mice model
  body weight: severe body weight loss
MS-NASH mice [3]; high dose CCl4 (0.2 mL/kg twice weekly), within the first 3 weeks
  death: ~20%
MS-NASH mice [3]; lower dose CCl4 (0.08 mL/kg twice weekly), end of 8-week experimental duration
  survival rate: 87.5%
C57B1/6 mice [4]
  survival rate: tended to be lower
MS-NASH mice [5]
  in-life serum ALT level: significantly lower
  in-life serum AST level: significantly lower

## CC[C@H]1[C@@H](O)[C@@H]2[C@H](CC[C@]3(C)[C@@H]([C@H](C)CCC(=O)O)CC[C@@H]23)[C@@]2(C)CC[C@@H](O)C[C@@H]12 [OCA, obeticholic acid]
C57B1/6 mice [6]
  serum ALT level: no significant effect
C57B1/6 mice [6]; [15]
  body weight: no significant effect
MS-NASH mice [7]
  serum ALT level: no significant effect
MS-NASH mice [7]; [15]
  body weight: no significant effect

— US20220330529A1, “METHODS FOR GENERATING ANIMAL MODELS FOR NONALCOHOLIC FATTY LIVER DISEASE” (INNOLAND BIOSCIENCES (ZHEJIANG) CO., LTD., priority 2019, published 2022)
